Patent publication US20190208800A1, “L-GLUTAMINE IN SWINE DIETS” (The United States of America, as represented by the …, priority 2018, published 2019)
Marks after values point to notes of the source that are not given here.

How the values were obtained:
[1] = tested on: tumor necrosis factor alpha (TNFα); assay: Example 3: tumor necrosis factor alpha in pigs' blood (FIG. 2); assay type: in vivo; conditions: blood samples; diets for 14 days after weaning and 12 h transport; vs no antibiotics
Procedure: Error bars represent ±1 standard error of the mean (SEM). Letters (a, b) indicate statistically significant differences (P≤0.05) between dietary treatments. In a similar experiment to the one above in Example 2, an L-glutamine-containing diet was evaluated for pigs to determine how it affected their general health and productivity. The experiment was conducted under commercial production conditions using a total of 480 mixed-sex (50% male and 50% female) pigs. Pigs were weaned and then transported for 12 hours to the nursery facility. Once pigs arrived at the nursery facility they were provided 1 of 3 separate diets, those being no antibiotics or L-glutamine (NA); 0.20% L-glutamine (GLN); or dietary antibiotics (A) for 14 days. After the 14-day period all pigs were provided the same antibiotic-free diets until they reached market weight. Blood and intestinal samples were collected from pigs to determine whole body immune function and intestinal integrity. […] Specifically, blood samples from the pigs were tested for tumor necrosis factor alpha (TNFα), a pro-inflammatory cytokine, elevated levels of which can be indicative of systemic inflammation and immune system activation which can be detrimental to the health and productivity of pigs. A reduction in circulating TNFα would be indicative of a decreased whole body inflammatory response in pigs. […]

[2] = Example 1: small-scale simulated transport of post-weaning pigs, 14-day diets; assay type: in vivo; conditions: 0.20% L-glutamine diet, 14 days post-weaning and simulated transport
Source text: In a small-scale example, three groups of post-weaning pigs were subjected to a simulated transport experience immediately post-weaning and then provided different diets to assess the effects of L-glutamine as a supplement in the diet. The details of the procedure are given in full in “Evaluating the behavior, growth performance, immune parameters, and intestinal morphology of weaned piglets after simulated transport and heat stress when antibiotics are eliminated from the diet or replaced with L-glutamine” by Johnson, J. S. and Lay Jr., D. C. in the Journal of Animal Science (2017, 95, 91-102), which is incorporated herein in its entirety by reference. In this experiment, the piglets were fed on disparate feeds for 14 days post-weaning and simulated transport, and then euthanized by CO2 exposure and exsanguination.

enteric disease = assay: Example 2: percentage of pigs treated for enteric disease (FIG. 1); assay type: in vivo; conditions: 0.20% L-glutamine diet; Period 1 (d 0-14) and Period 2 (d 15-34) post-weaning and transport
Source text: Period 1 is 0-14 days post-weaning and transport and Period 2 is 15-34 days post-weaning and transport. Error bars represent ±1 standard error of the mean (SEM). Letters (a, b) indicate statistically significant differences (P≤0.05) between dietary treatments and symbols (*, #) indicate statistically significant differences (P≤0.05) between periods. In a larger example, three groups of post-weaning and post-transport pigs (each group n=160, total of 480 pigs, 50% male and 50% female) were fed on different diets to assess the effects of L-glutamine as a supplement in the diet in a production environment. The diets consisted primarily of corn and soybean meal as in Example 1. One group (Group A) was fed a standard swine feed in two phases containing a standard antibiotic supplement (400 g chlortetracycline and 35 g tiamulin/ton of feed), another group (GLN) was fed a standard swine feed in two phases containing 0.20% L-glutamine, and a third group (NA) was given a standard swine diet in two phases containing no antibiotics or immunomodulators. Otherwise, the diets for groups A, GLN, and NA were the same. […] Data were analyzed on a per pen basis and the assumptions of normality of error, homogeneity of variance, and linearity were confirmed post-hoc.

[3] = Example 2: grow-finish growth performance (d 0 to d 125) until market; assay type: in vivo, pigs
Source text: (§1) In a larger example, three groups of post-weaning and post-transport pigs (each group n=160, total of 480 pigs, 50% male and 50% female) were fed on different diets to assess the effects of L-glutamine as a supplement in the diet in a production environment. The diets consisted primarily of corn and soybean meal as in Example 1. One group (Group A) was fed a standard swine feed in two phases containing a standard antibiotic supplement (400 g chlortetracycline and 35 g tiamulin/ton of feed), another group (GLN) was fed a standard swine feed in two phases containing 0.20% L-glutamine, and a third group (NA) was given a standard swine diet in two phases containing no antibiotics or immunomodulators. Otherwise, the diets for groups A, GLN, and NA were the same. The disparate diets were given to the different groups for 14 days post-weaning and transport, following which all three groups were on a common diet for the remainder of the trial. This experiment was conducted from Jul. 28, 2016 to Sep. 21, 2017. The pigs were followed all the way through market (i.e., day 125 post-weaning, being about 6 months of age). As stated above, the pigs were followed through to market-readiness at six months of age.

[4] = Example 2: nursery growth performance (d 0 to d 34 post-weaning) in a production environment; assay type: in vivo, pigs
Source text: as §1, with “age).” for “age). As stated above, the pigs were followed through to market-readiness at six months of age.”

intestines = assay: Example 3: ratio of villus height to crypt depth in the intestines (FIG. 3); assay type: in vivo, pigs; conditions: intestinal samples; diets for 14 days after weaning and 12 h transport; compared to NA
Procedure: Error bars represent ±1 standard error of the mean (SEM). Letters (x, y) indicate statistical tendencies (0.05<P≤0.10) between dietary treatments. In a similar experiment to the one above in Example 2, an L-glutamine-containing diet was evaluated for pigs to determine how it affected their general health and productivity. The experiment was conducted under commercial production conditions using a total of 480 mixed-sex (50% male and 50% female) pigs. Pigs were weaned and then transported for 12 hours to the nursery facility. Once pigs arrived at the nursery facility they were provided 1 of 3 separate diets, those being no antibiotics or L-glutamine (NA); 0.20% L-glutamine (GLN); or dietary antibiotics (A) for 14 days. After the 14-day period all pigs were provided the same antibiotic-free diets until they reached market weight. Blood and intestinal samples were collected from pigs to determine whole body immune function and intestinal integrity. […] In particular, intestinal samples from pigs were analyzed to determine the ratio of villus height to crypt depth in the intestines. Villus height to crypt depth ratio is a morphological measure of intestinal health and a greater ratio indicates an improvement in intestinal health. […] Improved intestinal health is essential for nutrient absorption and preventing pathogens from entering the body. […]

[5] = d 0 to 14 post-weaning, diet treatment period
[6] = d 0 to 34 post-weaning, overall nursery
[7] = d 15 to 34 post-weaning, common diet period

NC(=O)CC[C@H](N)C(=O)O [GLN, L-glutamine]
circulating TNFα [1]: reduced at a similar level
effectiveness in other parameters ([2]; vs antibiotics): approximately as effective as the antibiotics
productivity ([2]; vs non-antibiotic and antibiotic group): better productivity compared to the non-antibiotic and antibiotic group
requirement for injectable therapeutic antibiotics for enteric disease (enteric disease): the same requirement for injectable therapeutic antibiotics for enteric disease as the piglets fed the antibiotics
growth performance of piglets through the end of the nursery phase ([3]; body weight at start of grow-finish phase vs no antibiotic pigs): effective in improving the growth performance of piglets through the end of the nursery phase
Feed efficiency, gain: feed ([3]; d 0 to 62 of grow-finish phase, common diet): 0.46
Feed efficiency, gain: feed ([3]; d 0 to 125 of grow-finish phase): 0.38
d 62 body weight ([3]; d 62 of grow-finish phase): 65.02 kg
Feed efficiency, gain: feed ([3]; d 62 to 125 of grow-finish phase, common diet): 0.31
Final body weight ([3]; d 125, market): 121.73 kg
Initial body weight ([3]; start of grow-finish phase (d 0), diets given 14 days post-weaning, then common diet): 17.49^a kg
overall nursery phase performance ([4]; d 0-34 post-weaning, vs antibiotic pigs): performed similarly to the antibiotic pigs
Average daily feed intake [4, 5]: 272.06^a g
Average daily gain [4, 5]: 210.78^a g
Feed efficiency, gain: feed [4, 5]: 0.79^ab
Average daily feed intake [4, 6]: 517.08^xy g
Average daily gain [4, 6]: 352.73^ab g
Feed efficiency, gain: feed [4, 6]: 0.71^ab
d 14 body weight ([4]; d 14 post-weaning): 8.50^a kg
Average daily feed intake [4, 7]: 680.43 g
Average daily gain [4, 7]: 447.36 g
Feed efficiency, gain: feed [4, 7]: 0.66
d 34 body weight ([4]; d 34 post-weaning): 17.49^ab kg
feed intake, average daily gain, and final body weight compared to the non-antibiotic group ([4]; diet treatment period, d 0-14 post-weaning): significantly higher
villus height to crypt depth ratio (intestines): greater
